According to article PMC11672637, “7-O-Carboxylic Acid-Substituted 3-O-Alkyl Difluoroquercetin; An Aztreonam-Potentiating Agent Against Carbapenemase-Producing Pseudomonas aeruginosa Through Simultaneous Inhibition of Metallo-β-Lactamase and Efflux Pump” (Antibiotics, 2024):
≈ marks a conversion by molar mass, not a printed value. Read-outs that look alike come from different tables or passages of the source.

Key:
PA-014, blaGES [1] = experiment: MIC / checkerboard with ATM; type: cell-based, P. aeruginosa; set-up: key to Susceptibility category: S: susceptible; I: intermediate; R: resistant
PA-021, blaIMP = experiment: MIC / checkerboard with ATM; type: cell-based, P. aeruginosa; set-up: key to Susceptibility category: S: susceptible; I: intermediate; R: resistant; details: for MIC: Pseudomonas aeruginosa
PA-030, blaIMP = experiment: MIC / checkerboard with ATM; type: cell-based, P. aeruginosa; set-up: key to Susceptibility category: S: susceptible; I: intermediate; R: resistant; details: PA-030
[2] = tested on: NDM-1-Producing P. aeruginosa (PA-017, blaNDM); experiment: MIC / checkerboard with ATM; type: cell-based; set-up: key to Susceptibility category: S: susceptible; I: intermediate; R: resistant; details: PA-017
PA-026, blaNDM = experiment: MIC / checkerboard with ATM; type: cell-based, P. aeruginosa; set-up: key to Susceptibility category: S: susceptible; I: intermediate; R: resistant
PA-038, blaNDM = experiment: MIC / checkerboard with ATM; type: cell-based, P. aeruginosa; set-up: key to Susceptibility category: S: susceptible; I: intermediate; R: resistant; details: PA-038
PA-044, blaNDM = experiment: MIC / checkerboard with ATM; type: cell-based, P. aeruginosa; set-up: key to Susceptibility category: S: susceptible; I: intermediate; R: resistant
All CPPA (n = 26) = experiment: MIC distribution over clinical isolates; type: cell-based, P. aeruginosa; details: Pseudomonas aeruginosa
PA-002, blaIMP = experiment: Time–kill assay; type: cell-based, P. aeruginosa; details: 24 h
Protocol: (§1) Aliquots (50 μL) were taken from the incubation mixture at regular time intervals (t = 0, 3, 6, and 24 h), serially diluted in 0.85% NaCl solution, and plated on BAP. Bacterial colonies were counted, and the data are presented as the means of at least three independent experiments.

PA-003, blaVIM = experiment: Time–kill assay; type: cell-based, P. aeruginosa; details: 24 h
Protocol: as §1

PA-014, blaGES [3] = experiment: Time–kill assay; type: cell-based, P. aeruginosa; details: 24 h
Protocol: as §1

PA-017, blaNDM = experiment: Time–kill assay; type: cell-based, P. aeruginosa; details: 24 h
Protocol: as §1

C[C@H]1[C@H](NC(=O)/C(=N\OC(C)(C)C(=O)O)c2csc(N)n2)C(=O)N1S(=O)(=O)O [ATM, aztreonam]
Susceptibility to ATM (PA-014, blaGES [1]; PA-014, ATM alone): I (I (intermediate, MIC = 16 mg/L)) | Susceptibility category (PA-014, blaGES [1]; PA-014, Table S2): I | MIC (PA-014, blaGES [1]; Pseudomonas aeruginosa, read-out: MIC of ATM, PA-014, ATM alone (5 at 0 mg/L)): 16 µg/mL | Susceptibility to ATM (PA-021, blaIMP; PA-021, ATM alone): S (S (sensitive, MIC ≤ 8 mg/L)) | Susceptibility category (PA-021, blaIMP; PA-021, Table S2): S | MIC (PA-021, blaIMP; PA-021, Table S2, read-out: MIC value): 1 µg/mL | MIC (PA-021, blaIMP; read-out: MIC of ATM, PA-021, ATM alone (5 at 0 mg/L)): 1 µg/mL | Susceptibility to ATM (PA-030, blaIMP; ATM alone): R (R (resistant, MIC ≥ 32 mg/L)) | Susceptibility category (PA-030, blaIMP; Table S2): R | MIC (PA-030, blaIMP; Pseudomonas aeruginosa, Table S2, read-out: MIC value): 32 µg/mL | Susceptibility to ATM ([2]; ATM alone): I (I (intermediate, MIC = 16 mg/L)) | Susceptibility category ([2]; Table S2): I | Susceptibility to ATM (PA-026, blaNDM; PA-026, ATM alone): S (S (sensitive, MIC ≤ 8 mg/L)) | Susceptibility category (PA-026, blaNDM; PA-026, Table S2): S | MIC (PA-026, blaNDM; Pseudomonas aeruginosa, read-out: MIC of ATM, PA-026, ATM alone (5 at 0 mg/L)): 8 µg/mL | Susceptibility to ATM (PA-038, blaNDM; ATM alone): I (I (intermediate, MIC = 16 mg/L)) | Susceptibility category (PA-038, blaNDM; Table S2): I | Susceptibility to ATM (PA-044, blaNDM; PA-044, ATM alone): I (I (intermediate, MIC = 16 mg/L)) | Susceptibility category (PA-044, blaNDM; PA-044, Table S2): I | MIC (PA-044, blaNDM; Pseudomonas aeruginosa, read-out: MIC of ATM, PA-044, ATM alone (5 at 0 mg/L)): 16 µg/mL | MIC50 (All CPPA (n = 26); read-out: MIC50 of ATM, 5 at 0 mg/L): 16 µg/mL (≈ 36.7 µM) | MIC90 (All CPPA (n = 26); read-out: MIC90 of ATM, 5 at 0 mg/L): 32 µg/mL (≈ 73.5 µM) | Log CFU/mL, ATM only (PA-002, blaIMP; ATM 1/2 MIC): 9.02 Log CFU/mL | Log CFU/mL, ATM only (PA-002, blaIMP; ATM 1/4 MIC): 9.48 Log CFU/mL | Log CFU/mL, ATM only (PA-002, blaIMP; ATM 1 MIC): 8.15 Log CFU/mL | Log CFU/mL, ATM only (PA-002, blaIMP; ATM 2 MIC): 5.50 Log CFU/mL | Log CFU/mL, ATM only (PA-003, blaVIM; ATM 1/2 MIC): 9.88 Log CFU/mL | Log CFU/mL, ATM only (PA-003, blaVIM; ATM 1/4 MIC): 10.18 Log CFU/mL | Log CFU/mL, ATM only (PA-003, blaVIM; ATM 1 MIC): 9.13 Log CFU/mL | Log CFU/mL, ATM only (PA-003, blaVIM; ATM 2 MIC): 6.40 Log CFU/mL | Log CFU/mL, ATM only (PA-014, blaGES [3]; ATM 1/2 MIC): 8.83 Log CFU/mL | Log CFU/mL, ATM only (PA-014, blaGES [3]; ATM 1/4 MIC): 9.33 Log CFU/mL | Log CFU/mL, ATM only (PA-014, blaGES [3]; ATM 1 MIC): 7.68 Log CFU/mL | Log CFU/mL, ATM only (PA-014, blaGES [3]; ATM 2 MIC): 2.45 Log CFU/mL | Log CFU/mL, ATM only (PA-017, blaNDM; ATM 1/2 MIC): 9.97 Log CFU/mL | Log CFU/mL, ATM only (PA-017, blaNDM; ATM 1/4 MIC): 10.74 Log CFU/mL | Log CFU/mL, ATM only (PA-017, blaNDM; ATM 1 MIC): 6.52 Log CFU/mL | Log CFU/mL, ATM only (PA-017, blaNDM; ATM 2 MIC): 0.12 Log CFU/mL
